The nature of data set [1]: Plasma metabolite profile by radiochromatography, dogs. Format: in vivo, beagle dogs. As to conditions: single oral 30 mg/kg DVS. As to the method:
Plasma samples collected at 1 and 4 hours post-dose were analyzed for metabolite profiles. Aliquots of 1 mL plasma were mixed with an equal volume of acetonitrile, placed on ice for at least 10 minutes, and then centrifuged at 14000 rpm in an Eppendorf Model 5415C centrifuge for 10 minutes. The supernatant fluid was transferred to a clean tube. The supernatant was analyzed for radioactivity. The supernatant was concentrated under a stream of nitrogen in a Turbo Vap (Zymark, Hopinkton, Mass.) to remove the acetonitrile. An aliquot of the aqueous residue was analyzed by HPLC for profiling. Selected samples were also analyzed by LC/MS to characterize the radioactive peaks.
Chromatographic analyses were performed with a Waters Alliance model 2690 HPLC system (Waters Corp., Milford, Mass.). It was equipped with a built-in autosampler and was in-line with a model 2487 tunable UV detector, set to monitor 225 nm, and a FloOne β Model 515 radioactivity flow detector (Perkin Elmer) with a 250 μL LQTR flow cell. The flow rate of Ultima Flow M scintillation fluid was 3 mL/min, providing a mixing ratio of scintillation cocktail to mobile phase of 3:1. […]

A short description of data set [2]: Metabolites of DVS observed by LC/MS in dog plasma, urine and feces. Format: in vivo, beagle dogs. As to conditions: P: plasma, U: urine, F: feces. As to the method: An Agilent Model 1100 HPLC system (Agilent Technologies, Wilmington, Del.) including an autosampler and diode array UV detector was used for LC/MS analysis. The UV detector was set to monitor 200 to 400 nm. Separations were accomplished on a 5 micron Phenomenex Luna C18(2) column, 150×2 mm (Phenomenex). The column temperature was 25° C. For selected LC/MS analyses, radiochromatograms were acquired using a β-RAM model 3 radioactivity flow detector (IN/US Systems Inc., Tampa, Fla.) equipped with a solid scintillation flow cell.
The mass spectrometers used for metabolite characterization were a Micromass Q-TOF-2 quadrupole time-of-flight hybrid mass spectrometer (Micromass, Inc., Beverly, Mass.) and a Finnigan LCQ Deca ion trap mass spectrometer (ThermoFinnigan, San Jose, Calif.). The mass spectrometer was equipped with an electrospray ionization (ESI) interface and operated in the positive ionization mode.

Data set [3] in a line: Urinary excretion and metabolite profile by radiochromatography, dogs. In kind it is in vivo, beagle dogs. As to conditions: urine 8-24 hours post-dose, single oral 30 mg/kg, mean of 2 analyses, 30 mg/kg. The protocol:
(§1) For each dog, urine and feces were collected separately, with urine collected on dry ice and feces collected at room temperature. Collections were from 0-8 and 8-24 hours for urine and 0-24 hours for feces. Urine and fecal samples were shipped on dry ice to Wyeth Research, Biotransformation Division (Collegeville, Pa.) for analysis. Fecal samples were homogenized in approximately five volumes (v/w) of water. Aliquots of approximately 0.2 grams of the homogenate were placed into combusto-cones, weighed and allowed to air dry. These samples were then oxidized and radioactivity content determined. The remaining urine samples and fecal homogenates were stored at −70° C. until metabolite analysis. Blood samples and fecal homogenates were oxidized in a Model 307 Tri-Carb sample oxidizer, using Carbosorb® E (6 mL) as trapping agent and PermaFluor® E^+ (10 mL) as scintillant. The background reading (average of control blood or fecal samples) was subtracted from each sample reading. Aliquots of urine and plasma were analyzed directly following the addition of 10 mL of Ultima Gold™ scintillation fluid.
Urine samples collected between 8 and 24 hours post-dose were analyzed for metabolite profiles. Aliquots of urine were centrifuged at 14000 rpm in an Eppendorf Model 5415C centrifuge for 10 minutes. The supernatant was transferred to a fresh tube and analyzed for radioactivity content and by HPLC for metabolite profiling. Selected samples were also analyzed by LC/MS to characterize the radioactive peaks.
(§2) Chromatographic analyses were performed with a Waters Alliance model 2690 HPLC system (Waters Corp., Milford, Mass.). It was equipped with a built-in autosampler and was in-line with a model 2487 tunable UV detector, set to monitor 225 nm, and a FloOne β Model 515 radioactivity flow detector (Perkin Elmer) with a 250 μL LQTR flow cell. The flow rate of Ultima Flow M scintillation fluid was 3 mL/min, providing a mixing ratio of scintillation cocktail to mobile phase of 3:1. Separation of the metabolite peaks was accomplished on a Phenomenex Luna C18(2) column, 250×4.6 mm, 5 micron (Phenomenex, Torrance, Calif.), using a linear gradient of two mobile phases, A and B. Mobile phase A was 10 mM ammonium acetate, pH 5.5, and mobile phase B was acetonitrile. The flow rate was 1 mL/min.

Data set [4] is described as follows: Metabolites of DVS observed by LC/MS in rat plasma, urine and feces. In kind it is in vivo, Sprague Dawley rats. Particulars: P: plasma, U: urine, F: feces. As to the method:
An Agilent Model 1100 HPLC system (Agilent Technologies, Wilmington, Del.) including an autosampler and diode array UV detector was used for LC/MS analysis. The UV detector was set to monitor 200 to 400 nm. Separations were accomplished on a 5 micron Phenomenex Luna C18(2) column, 150×2 mm (Phenomenex). The column temperature was 25° C. The mobile phases and gradient program were as follows.
The mass spectrometer used for metabolite characterization was a Micromass Q-TOF-2 quadrupole time-of-flight hybrid mass spectrometer (Micromass, Inc., Beverly, Mass.). The mass spectrometer was equipped with an electrospray ionization (ESI) interface and operated in the positive ionization mode.

Data set [5] can be described thus: Urinary excretion and metabolite profile by radiochromatography, rats. Format: in vivo, Sprague Dawley rats. As to conditions: for Compounds Detected by Radiochromatography in urine (Mean ± S.D., n = 3), percent of total peaks: single oral 20 mg/kg. As to the method:
(§3) Urine and feces were collected separately on dry ice from three animals per sex. Collections were from 0-8 and 8-24 hours for male rats and 0-8 hours for female rats. Fecal samples were homogenized in approximately five volumes (v/w) of water. Aliquots of approximately 0.4 grams of the homogenate were placed into combusto-cones, weighed and allowed to air dry. These samples were then oxidized. The remaining urine samples and fecal homogenates were stored at −70° C. until metabolite analysis.
All urine samples were analyzed for metabolite profiles. Aliquots of 0.5 mL urine were centrifuged at 3500 rpm and 4° C. in a Sorvall Super 21 centrifuge for 10 minutes. The supernatant was transferred to a fresh tube and analyzed for radioactivity content and by HPLC for profiling. Selected samples were also analyzed by LC/MS to characterize the radioactive peaks.
as §2, with “β Model 525 radioactivity flow” for “β Model 515 radioactivity flow”, “fluid was 1 mL/min, providing” for “fluid was 3 mL/min, providing”, “phase of 5:1. Separation of” for “phase of 3:1. Separation of”, “C18(2) column, 150×2.0 mm, 5” for “C18(2) column, 250×4.6 mm, 5”, “acetate, pH 6.0, and mobile” for “acetate, pH 5.5, and mobile”, “rate was 0.2 mL/min.” for “rate was 1 mL/min.”

Data set [6] in a line: Plasma metabolite profile by radiochromatography, rats. Particulars: single oral 20 mg/kg DVS. In kind it is in vivo, Sprague Dawley rats. As to the method: Plasma samples collected at 1, 4 and 8 hours post-dose were analyzed for metabolite profiles. Aliquots of 0.5 mL plasma were mixed with an equal volume of acetonitrile, placed on ice for approximately 10 minutes, and then centrifuged at 3500 rpm and 4° C. in a Sorvall Super 21 centrifuge for 10 minutes. The supernatant fluid was transferred to a clean tube. The supernatant was analyzed for radioactivity. The supernatant was concentrated under a stream of nitrogen in a Turbo Vap (Zymark, Hopinkton, Mass.) to remove the acetonitrile. An aliquot of the aqueous residue was analyzed by HPLC for metabolite profiling. Selected samples were also analyzed by LC/MS to characterize the radioactive peaks.
as §2, with “β Model 525 radioactivity flow” for “β Model 515 radioactivity flow”, “fluid was 1 mL/min, providing” for “fluid was 3 mL/min, providing”, “phase of 5:1. Separation of” for “phase of 3:1. Separation of”, “C18(2) column, 150×2.0 mm, 5” for “C18(2) column, 250×4.6 mm, 5”, “acetate, pH 6.0, and mobile” for “acetate, pH 5.5, and mobile”, “rate was 0.2 mL/min.” for “rate was 1 mL/min.”

The nature of data set [7]: Fecal excretion and metabolite profile by radiochromatography, rats. In kind it is in vivo, Sprague Dawley rats. Particulars: male rats, feces 8-24 hours post-dose, single oral 20 mg/kg, 20 mg/kg. As to the method: as §3
Fecal homogenates collected from male rats between 8 and 24 hours post-dose were analyzed for metabolite profiles. Aliquots of approximately 1 gram of fecal homogenate were centrifuged at 3500 rpm and 4° C. in a Sorvall Super 21 centrifuge for 10 minutes. The supernatant was transferred to a clean tube. The residue was re-suspended with 1 mL of water:acetonitrile (1:1, v:v) and centrifuged as described above. The resulting supernatant was combined with the original supernatant and the residue re-suspended with 1 mL of acetonitrile. The suspension was centrifuged as described above, and the supernatants were combined and analyzed for radioactivity. The supernatants were then concentrated under a stream of nitrogen in a Turbo Vap to remove the acetonitrile. An aliquot of the aqueous residue was analyzed by HPLC for profiling. Selected samples were also analyzed by LC/MS to characterize the radioactive peaks.
as §2, with “β Model 525 radioactivity flow” for “β Model 515 radioactivity flow”, “fluid was 1 mL/min, providing” for “fluid was 3 mL/min, providing”, “phase of 5:1. Separation of” for “phase of 3:1. Separation of”, “C18(2) column, 150×2.0 mm, 5” for “C18(2) column, 250×4.6 mm, 5”, “acetate, pH 6.0, and mobile” for “acetate, pH 5.5, and mobile”, “rate was 0.2 mL/min.” for “rate was 1 mL/min.”

The nature of data set [8]: Fecal excretion and metabolite profile by radiochromatography, dogs. As to conditions: single oral 30 mg/kg; for Compounds Detected by Radiochromatography in feces, percent of total peaks, individual dogs: feces 0-24 hours post dose (dog 7 until 48 hours), average of 2 analyses; for Compounds Detected by Radiochromatography in feces, percent of total peaks, Mean ± S.D.: feces 0-24 hours post dose. In kind it is in vivo, beagle dogs. As to the method:
as §1
Fecal homogenates collected up to 24 hours post-dose were analyzed for metabolite profiles. Aliquots of approximately 2 grams of fecal homogenate were transferred to a fresh tube, an equal volume of acetonitrile (v/w) was added, and the tube vortexed. Samples were then centrifuged at 14000 rpm in an Eppendorf Model 5415C centrifuge for 10 minutes. The supernatant was transferred to a clean tube. The residue was re-suspended with 1 mL acetonitrile and centrifuged as described above. The resulting supernatant was combined with the original supernatant and analyzed for radioactivity. The supernatants were then concentrated under a stream of nitrogen in a Turbo Vap to remove the acetonitrile. An aliquot of the aqueous residue was analyzed by HPLC for profiling. Selected samples were also analyzed by LC/MS to characterize the radioactive peaks.
as §2

“And” between values parts separate entries of the source, which are not always exact repeats. Identical values can stand only once.

Turning to `CN(C)CC(c1ccc(O[C@@H]2O[C@H](C(=O)O)[C@@H](O)[C@H](O)[C@H]2O)cc1)C1(O)CCCCC1` (some centres unmarked) [Metabolite M7, O-desmethylvenlafaxine O-glucuronide], the “% of the radioactivity detected in plasma” value worked out at 77.5% in data set [1] (1 hour post-dose) and 96.4% in data set [1] (4 hours post-dose). For the same compound, the “Matrix (metabolite observed by LC/MS)” value in data set [2] was “P, U, F”; in data set [4] it was “P, U, F”. The “Compounds Detected by Radiochromatography in urine, percent of total peaks, individual dogs” value in data set [3] is 84.1% and 83.5% and 83.9% and 86.8%. Also, the “% of the radioactivity detected in urine” value in data set [5] (all urine samples at each time point) was “approximately 75%”. Besides, the “Compounds Detected by Radiochromatography in urine (Mean ± S.D., n = 3), percent of total peaks” value in data set [5] (0-8 hr, female) was determined as 74.0 ± 3.3%; in data set [5] (0-8 hr, male), 76.5 ± 1.9%; in data set [5] (8-24 hr, male), 77.2 ± 1.2%. For the same compound, the “% of the radioactivity in plasma” value in data set [6] (female rats, 1 hour post-dose) is 86.6%; in data set [6] (male rats, 1 hour post-dose), 88.7%; in data set [6] (male rats, 4 hours post-dose), 93.6%.
With `CN(C)CC(O)(c1ccc(O)cc1)C1(O)CCCCC1` (centres unmarked) [Metabolite M9, Hydroxy DV], the “Matrix (metabolite observed by LC/MS)” value in data set [2] is listed as “U, F”.
Take `CNCC(c1ccc(O)cc1)C1(O)CCCCC1` (centres unmarked) [Metabolite M10, N,O-didesmethylvenlafaxine]: the “Matrix (metabolite observed by LC/MS)” value in data set [2] is given as “P, U, F”. For the same compound, in data set [7], the “Compounds Detected by Radiochromatography in feces, percent of total peaks, Mean ± S.D.” value is 34% and 33.6 ± 0.9%; the “Compounds Detected by Radiochromatography in feces, percent of total peaks, individual rats” value is 34.5% and 32.6% and 33.6%. In data set [4], the “Matrix (metabolite observed by LC/MS)” value is “P, U, F”. Also, the “Compounds Detected by Radiochromatography in feces, percent of total peaks, individual dogs” value in data set [8] is 9.8% and 17.7% and 8.6% and 11.2%.
With `CNCC(c1ccc(O[C@@H]2O[C@H](C(=O)O)[C@@H](O)[C@H](O)[C@H]2O)cc1)C1(O)CCCCC1` (some centres unmarked) [Metabolite M13, N,O-didesmethylvenlafaxine O-glucuronide], the “Matrix (metabolite observed by LC/MS)” value is listed as “P, U” in data set [2] and “P, U” in data set [4]. In addition, the “Compounds Detected by Radiochromatography in urine, percent of total peaks, individual dogs” value in data set [3] is 3.3% and 3.5% and 4.3% and 3.6%.
As for `NCC(c1ccc(O)cc1)C1(O)CCCCC1` (centres unmarked) [Metabolite M14, N,N,O-tridesmethylvenlafaxine], the “Matrix (metabolite observed by LC/MS)” value in data set [2] was “U, F”. In data set [8], the “Compounds Detected by Radiochromatography in feces, percent of total peaks, individual dogs” value was 4.4% and 16.1% and 0.0% (2×); the “Compounds Detected by Radiochromatography in feces, percent of total peaks, Mean ± S.D.” value is reported as 5.1 ± 7.0%.
On to `C[N+](C)([O-])CC(c1ccc(O)cc1)C1(O)CCCCC1` (centres unmarked) [N-oxide DV], for which the “Matrix (metabolite observed by LC/MS)” value is recorded as “P, U, F” in data set [2] and “P, U, F^b” in data set [4]. For the same compound, the “Compounds Detected by Radiochromatography in feces, percent of total peaks, Mean ± S.D.” value in data set [7] is recorded as 7%; in data set [7] (listed as N-Oxide) it was 7.1 ± 1.3%; in data set [8], “approximately 7%”; in data set [8] (listed as N-Oxide), 7.2 ± 6.1%. In data set [7] (listed as N-Oxide), the “Compounds Detected by Radiochromatography in feces, percent of total peaks, individual rats” value is 6.0% and 6.7% and 8.5%. In data set [8], the “Compounds Detected by Radiochromatography in feces, percent of total peaks, individual dogs” value is 7.3% and 15.7% and 5.7% and 0.0%.

For the origin of these results see patent US20080261895A1 (Wyeth, priority 2006, published 2008).
